In patent publication US20250362286A1, “SCREENING MODELS AND METHODS OF CANCER TREATMENT” (The Regents of the University of California, priority 2022, published 2025):
Entries after “also recorded” stand apart in the source; their conditions may differ.

Experiments:
PA-14-13 PDOs = assay: sensitivity of PDOs to doxorubicin after pre-treatment; format: cell-based; conditions: pre-treatment 5d, then doxorubicin 3d
Description: (§1) To determine if these effects would translate to increased sensitivity to chemotherapy, both sets of PDOs were treated with ISX9 for 5d, followed by doxorubicin for 3d. […] FIG. 8P and FIG. 8Q depicts results of tests showing that PIM-025 PDOs and PA-14-13 PDOs, respectively, pre-treated with ISX9 acquire increased sensitivity to doxorubicin.

PIM-025 PDOs = assay: as above; format: cell-based; conditions: pre-treatment 5d, then doxorubicin 3d
Description: as §1

MDAs [1] = assay: CellTiter-Fluor metabolic activity assay; format: cell-based; conditions: 2D, 10-40 μM
Description: (§2) FIG. 7C depicts the metabolic activity, cytotoxicity, and relative CD24 expression dose-response to ISX9.

MDA-MB-231 = assay: B-Catenin localization to cell-cell junctions; format: cell-based; conditions: 48 hours, 2D-treated cells
Notch pathway genes = assay: RT-qPCR gene expression analysis of Notch target genes in MDAs; format: cell-based; conditions: 24h in HD Col1, vs vehicle
Description: Also assessed was how the Notch pathway responded to ISX9 treatment. […] FIG. 3A depicts the results of a RT-qPCR gene expression analysis of Notch target genes in vehicle and Isx9 treated MDAs.

MDAs [2] = assay: flow cytometry of CDH1+ MDA cells in 2D and 3D Collagen I densities; format: cell-based
Description: To determine whether induction of MET was specific to the HD Collagen I condition or generally applicable to all ISX9-treated cells in a 3D Collagen condition, CDH1^+ cells in 2D, and multiple 3D Collagen I densities were flow-sorted (1 mg/mL, 2.5 mg/mL, and 6 mg/mL Col1) (FIG. 4F, FIG. 4G).) FIG. 4F depicts fluorescence profiles of CDH1 in MDAs treated with vehicle or ISX9 for 7 days in 2D TC, LD Col1, MD Col1, or HD Col1 conditions. FIG. 4G depicts a flow cytometry analysis of CDH1^+ MDA cells treated with vehicle or ISX9 in 2D TC, LD Col1, MD Col1, or HD Col1.

BT-549 = assay: CD24 mRNA expression in 2D for 48h; format: cell-based
Description: (§3) FIG. 3H depicts relative CD24 mRNA expression. CD24 expression was an early indicator of response to ISX9 in 2D across several TNBC cell lines. Treatment screening of several different TNBC cell lines with ISX9 in 2D for 48h yielded four responders, as determined by CD24 mRNA expression (FIG. 3H).

MDA-MB-468 = assay: CD24 mRNA expression in 2D for 48h; format: cell-based
Description: as §3

SUM149 = assay: CD24 mRNA expression in 2D for 48h; format: cell-based
Description: as §3

MDA-MB-436 = assay: CD24 mRNA expression in 2D for 48h; format: cell-based
Description: as §3

[3] = system: MDAs and MDA-231-BrM2 (TNBC), Py8119 (Breast Cancer), HT-1080 (fibrosarcoma), Sk-HEP-1 (liver cancer), and R40P (PDAC) cells; assay: phenotype screen for anti-invasive activity in the HD Col1 model system; format: cell-based; conditions: HD Col1, 7 days of culture; all six cell lines
Description: In this example, it was explored whether isoxazole derivatives could similarly induce differentiation of CSCs occupying the clinically relevant notch-activated state conferred by the HD Col1 model system of Example 1 (Table 1, FIG. 1). […] FIG. 2 includes brightfield microscopy images of cancer cell lines at 7 days of culture in HD Col1 treated with vehicle or ISX9 (scale bar=250 μm).

MDA-MB-231s = assay: CD24 mRNA expression in 2D (differentiation screening); format: cell-based
Description: as §3
These analogs were screened for their potential to differentiate MDA-MB-231s, yielding at least one new hit, CR-1 (˜98% similarity), which induced a ˜6-fold upregulation of CD24 at a concentration of 200 μM at 48h in 2D (FIG. 6).

MDAs [4] = assay: RT-qPCR of CD24 expression in MDAs, 7 days; format: cell-based; conditions: after 7 days, population level
Description: To further assess differentiation status, RT-PCR and flow cytometry (FC) was used to quantify expression of the CSC stemness biomarker signature CD44^+/CD24^− in MDAs. At the population level, MDAs increased CD24 mRNA expression ˜14-fold with ISX9 treatment after 7 days (FIG. 3E). FIG. 3E depicts RT-qPCR of CD24 expression in MD As treated with vehicle or ISX9. […] (FIG. 3F, FIG. 3G). FIG. 3F and FIG. 3G depicts flow cytometry analysis of MDAs treated with vehicle or ISX9.

[5] = once daily 16 mg/kg ip for several weeks, cited from earlier work
PIM025 = assay: western blot of acetylated H3/H4 in PDOs; format: cell-based; conditions: patient-derived organoid model
Description: (§4) Also identified was the fact that a similar increase in acetylation was found in patient-derived organoid models. […] Acetylation and deactylation of histones H3 and H4 are typically orchestrated by Histone Acetyltransferases (HATs), including the several HAT subfamilies, as well as HDACs (see, e.g., Marmorstein, R. et al. Cold Spring Harb. Perspect. Biol. 6, a018762 (2014)). Not wishing to be bound by any particular theory, Isx9 may bind directly to HATs and/or HDACs in order to activate histone acetylation and drive induction of MET and/or CSC differentiation.

PA-14-13 = assay: western blot of acetylated H3/H4 in PDOs; format: cell-based; conditions: patient-derived organoid model
Description: as §4

MDAs [6] = assay: CytoTox-Fluor cytotoxicity assay; format: cell-based; conditions: 2D, 1-40 μM
Description: as §2

[7] = system: Notch-activated epicardium-derived cells (NECs); conditions: after myocardial infarction; cited from earlier work
MDA-MB-231 cells = assay: western blot of acetylation of histones H3 and H4; format: cell-based; conditions: 2D- and 3D-treated cells, 24 hours
Description: as §4

SMILES: O=C(NC1CC1)c1cc(-c2cccs2)on1 [ISX9, Isoxazole 9]
- increase in sensitivity to doxorubicin (PA-14-13 PDOs): 85.8 fold
- increase in sensitivity to doxorubicin (PIM-025 PDOs): 2.9 fold
- metabolic activity (MDAs [1]): decrease in metabolic activity
- B-Catenin localization to cell-cell junctions (MDA-MB-231): significant increase in B-Catenin localization
- expression of Notch pathway genes (Notch pathway genes): significantly increased
- CDH1+ induction (MDAs [2]; 1 mg/mL and 2.5 mg/mL Col1, 7 days): unable to re-express CDH1^+to similar levels
- effect on CDH1+ cells (MDAs [2]; 2D, 7 days): small effect
- population of CDH1+ cells (MDAs [2]; HD (6 mg/mL) Col1, 7 days): highest population of CDH1^+ cells
- CD24 mRNA expression (FC) (BT-549): ~12.6
- CD24 mRNA expression (FC) (MDA-MB-468): ~0.6
- CD24 mRNA expression (FC) (SUM149): ~2.7
- CD24 mRNA expression (FC) (MDA-MB-436): ~7.1
- invasive capability [3]: significant abrogation of the invasive capability
- CD24 mRNA expression (FC) (MDA-MB-231s; 48h): ~31.6
- CD24 mRNA dose-response (MDA-MB-231s; concentration range 1-40 μM): upregulation of CD24 mRNA
- increase of CD24 mRNA expression (MDAs [4]): ~14 fold
- tolerability (signs or symptoms) ([5]; 16 mg/kg): well-tolerated; also recorded: no signs or symptoms of lethargy, weight loss or decreased appetite
- serum biochemistry and hematology profiles [5]: normal
- acetylated H3/H4 expression (PIM025): slight increase in acetylated H3/H4 expression
- acetylated H3/H4 expression (PA-14-13): large increase in acetylated H3/H4 expression
- cytotoxicity (MDAs [6]): without any observable increase in cytotoxicity
- fibrosis and ventricular functional decline after MI [7]: failed to mitigate fibrosis or avert ventricular functional decline after MI
- acetylation of histones H3 and H4 (MDA-MB-231 cells): significant increase in acetylation of histones H3 and H4
